Results from the NIST ThermoML archive (doi:10.1016/j.jct.2006.01.008).

Experiment: mn = molality of the nth substance listed, in mol/kg
Conditions: Liquid

O=[N+]([O-])[O-].[Li+] [lithium nitrate] + CO
Conditions	mass density [kg/m3]
323.15 K, 20247 kPa, m1 = 0.8904	823
323.15 K, 20742 kPa, m1 = 0.2943	797.81
323.15 K, 25168 kPa, m1 = 0.2943	801.7
323.15 K, 25632 kPa, m1 = 0.8904	827.45
323.15 K, 26297 kPa, m1 = 0.1551	796.26
323.15 K, 30058 kPa, m1 = 0.8904	830.92
323.15 K, 30685 kPa, m1 = 0.2943	806.29
323.15 K, 31035 kPa, m1 = 0.1551	800.23
323.15 K, 35027 kPa, m1 = 0.2943	809.7
323.15 K, 35214 kPa, m1 = 0.8904	834.74
323.15 K, 35748 kPa, m1 = 0.1551	803.97
323.15 K, 39867 kPa, m1 = 0.1551	807.06
323.15 K, 39867 kPa, m1 = 0.8904	837.98
323.15 K, 40002 kPa, m1 = 0.2943	813.4
323.23 K, 206 kPa, m1 = 3.614	908.05
323.23 K, 211 kPa, m1 = 0.5393	788.49
323.23 K, 234 kPa, m1 = 1.803	842.01
323.23 K, 4982 kPa, m1 = 3.614	911.88
323.23 K, 4988 kPa, m1 = 1.803	846.4
323.23 K, 4989 kPa, m1 = 0.5393	793.5
323.23 K, 9987 kPa, m1 = 3.614	915.71
323.23 K, 9991 kPa, m1 = 0.5393	798.45
323.23 K, 10005 kPa, m1 = 1.803	850.8
323.23 K, 14993 kPa, m1 = 3.614	919.41
323.23 K, 14999 kPa, m1 = 0.5393	803.13
323.23 K, 15005 kPa, m1 = 1.803	854.96
323.23 K, 19987 kPa, m1 = 3.614	922.95
323.23 K, 19992 kPa, m1 = 1.803	858.94
323.23 K, 19999 kPa, m1 = 0.5393	807.57
323.23 K, 24991 kPa, m1 = 3.614	926.36
323.23 K, 24995 kPa, m1 = 1.803	862.77
323.23 K, 24997 kPa, m1 = 0.5393	811.8
323.23 K, 29993 kPa, m1 = 0.5393	815.84
323.23 K, 29998 kPa, m1 = 3.614	929.67
323.23 K, 30014 kPa, m1 = 1.803	866.46
323.23 K, 34988 kPa, m1 = 0.5393	819.71
323.23 K, 34989 kPa, m1 = 3.614	932.86
323.23 K, 34999 kPa, m1 = 1.803	869.98
323.23 K, 39993 kPa, m1 = 3.614	935.96
323.23 K, 39995 kPa, m1 = 0.5393	823.45
323.23 K, 39997 kPa, m1 = 1.803	873.39
348.15 K, 381 kPa, m1 = 0.1551	746.07
348.15 K, 409 kPa, m1 = 0.8904	781.31
348.15 K, 425 kPa, m1 = 0.2943	753.31
348.15 K, 5068 kPa, m1 = 0.1551	751.95
348.15 K, 5124 kPa, m1 = 0.2943	759.07
348.15 K, 5124 kPa, m1 = 0.8904	786.59
348.15 K, 10572 kPa, m1 = 0.2943	765.41
348.15 K, 10865 kPa, m1 = 0.8904	792.73
348.15 K, 10875 kPa, m1 = 0.1551	758.86
348.15 K, 15038 kPa, m1 = 0.1551	763.56
348.15 K, 15324 kPa, m1 = 0.2943	770.66
348.15 K, 15326 kPa, m1 = 0.8904	797.27
348.15 K, 19875 kPa, m1 = 0.1551	768.75
348.15 K, 20125 kPa, m1 = 0.2943	775.7
348.15 K, 20875 kPa, m1 = 0.8904	802.64
348.15 K, 25412 kPa, m1 = 0.8904	806.8
348.15 K, 25632 kPa, m1 = 0.2943	781.14
348.15 K, 26038 kPa, m1 = 0.1551	774.93
348.15 K, 30057 kPa, m1 = 0.2943	785.25
348.15 K, 30587 kPa, m1 = 0.8904	811.29
348.15 K, 31412 kPa, m1 = 0.1551	779.95
348.15 K, 35231 kPa, m1 = 0.8904	815.1
348.15 K, 35748 kPa, m1 = 0.1551	783.73
348.15 K, 35942 kPa, m1 = 0.2943	790.36
348.15 K, 39511 kPa, m1 = 0.2943	793.25
348.15 K, 39784 kPa, m1 = 0.1551	787.04
348.15 K, 40005 kPa, m1 = 0.8904	818.78
